Experimental data from patent US10758549B2, “Compositions of obeticholic acid and methods of use” (Intercept Pharmaceuticals, Inc., priority 2015, dated 2020).

Key:
patients with PBC = assay: Example 9: randomized double-blind placebo-controlled 12-month trial of OCA in PBC; type: in vivo, human; details: for Patients who achieved response (ALP<1.67×ULN, ALP reduction ≥15%, TB≤ULN) at Month 6: 5 mg (N = 70); for Response at Month 6 [1] / Response at Month 12 [1]: Table 25 analysis; for ALP < 1.67 × ULN and Decrease ≥ 15% at Month 6 [3] / ALP < 1.67 × ULN and Decrease ≥ 15% at Month 12 [3] / ALP < 1.67 × ULN at Month 6 [3] / ALP < 1.67 × ULN at Month 12 [3] / Decrease in ALP ≥ 15% at Month 6 [3] / Decrease in ALP ≥ 15% at Month 12 [3]: patients with Baseline ALP ≥ 1.67 × ULN but < 2.0 × ULN; for ALP < 2.0 × ULN and Decrease ≥ 40% at Month 6 [2] / ALP < 2.0 × ULN and Decrease ≥ 40% at Month 12 [2] / ALP < 2.0 × ULN at Month 6 [2] / ALP < 2.0 × ULN at Month 12 [2] / Decrease in ALP ≥ 40% at Month 6 [2] / Decrease in ALP ≥ 40% at Month 12 [2]: patients with Baseline ALP ≥ 2.0 × ULN
Method: This example describes a randomized, double-blind, placebo-controlled, parallel-group, 12-month trial evaluating OCA in patients with PBC as a monotherapy.
Patients with inflammatory bowel disease or who had undergone gastric bypass procedures were excluded (gastric lap band was acceptable). • Medical conditions that could cause non-hepatic increases in ALP (e.g., Paget's disease)
ALP and TB composite response criteria were measured; a patient was designated as a responder if all three of the following conditions were met: • A value of ALP<1.67×ULN • ALP reduction from baseline ? 15% • A value of TB<ULN
The absolute and percent change from Baseline in ALP, gamma-glutamyl transferase (GGT), alanine aminotransferase (ALT), AST, total bilirubin, conjugated (direct) bilirubin, albumin, prothrombin time and international normalized ratio (INR) at all-time points was measured. The percentage of patients with a decrease in ALP of ? 10%, ? 15%, ? 20%, and ? 40% from Baseline or ? ULN at month 12 was measured. The percentage of patients achieving the following biochemical response criteria was also measured: • ALP ? 3×ULN and AST ? 2×ULN and bilirubin ? ULN ((Corpechot 2008);
Bile acid sequestrant (BAS) concomitant exposure. The primary analysis set used for all efficacy analyses, along with the summarization of disposition along with demographics and baseline characteristics, was the ‘Intent-to-Treat’ (ITT) analysis set. This analysis set included all randomized patients who received at least one dose of blinded study drug. When utilizing this analysis set, patients were analyzed according to the treatment group that they were randomized to regardless of the actual treatment received. It should be noted that all but one randomized patient received at least one dose of blinded study drug.
A Cochran-Mantel-Haenszel (CMH) test which adjusted for both randomization stratification variables as described above, was used for pre-specified analysis. In tandem with the CMH test, a Breslow-Day test was also conducted, to test for the homogeneity of the treatment effect across the different randomization strata.

[1] = Hepatic impairment study, single dose of 10 mg OCA; type: in vivo, human; details: hepatically-impaired patients
Source text: The mean total OCA concentration-time profiles in this study are shown in FIG. 16 and the mean PK parameters (Cmax and AUCt) for total OCA in plasma for normal healthy volunteers and subjects with various categories of hepatic impairment are quantified in Table 27.
Development of the PK model for the physiological changes associated with hepatic impairment used 928 plasma sample concentrations of OCA, glyco-OCA, and tauro-OCA from 32 subjects-8 subjects each with mild, moderate, severe hepatic impairment and normal hepatic function. Subjects were administered a single 10 mg dose of OCA. […] Participants were 90.6% white, 3.1% black, 3.1% Asian, and 3.1% other. Mean Child-Pugh Score was 8.0 (2.0) (Child-Pugh Score: Class A/Mild 5-6 points, Class B/Moderate 7-9 points, Class C/Severe 10-15 points). The percentage of BLQ samples with imputed concentrations was 16.8%, 5.4%, and 9.6% for OCA, glyco-OCA, and tauro-OCA, respectively.

Plasma protein binding = type: in vitro ADME; details: human

SMILES: CC[C@H]1[C@@H](O)[C@@H]2[C@H](CC[C@]3(C)[C@@H]([C@H](C)CCC(=O)O)CC[C@@H]23)[C@@]2(C)CC[C@@H](O)C[C@@H]12 [OCA, 3α,7α-dihydroxy-6α-ethyl-5β-cholan-24-oic acid]
- Month 12 ALP Concentration (U/L), Median (patients with PBC; OCA Titration): 196.6 U/L
- Month 12 ALP Concentration (×ULN), Mean (patients with PBC; OCA Titration): 1.851 ×ULN
- Month 12 ALP Concentration (×ULN), Median (patients with PBC; OCA Titration): 1.661 ×ULN
- Patients with ALP < 1.67 × ULN at Month 12 (patients with PBC; OCA Titration (N = 70)): (47.1%)
- Patients with Decrease in ALP ≥ 10% at Month 12 (patients with PBC; OCA Titration (N = 70)): (78.6%)
- Patients with Decrease in ALP ≥ 15% at Month 12 (patients with PBC; OCA Titration (N = 70)): (77.1%)
- Patients with Decrease in ALP ≥ 20% at Month 12 (patients with PBC; OCA Titration (N = 70)): (70.0%)
- Patients with Decrease in ALP ≥ 40% at Month 12 (patients with PBC; OCA Titration (N = 70)): (30.0%)
- Patients with Decrease in ALP ≥ 15% at Month 12 (patients with PBC; OCA Titration (N = 70), listed as obeticholic acid): 77%
- Patients who achieved response (ALP<1.67×ULN, ALP reduction ≥15%, TB≤ULN) at Month 6 (patients with PBC; OCA Titration, ITT): 24 (34.3%)
- Patients who achieved response (ALP<1.67×ULN, ALP reduction ≥15%, TB≤ULN) at Month 6 (patients with PBC; OCA Titration, ITT, listed as Obeticholic acid): 24 (34) %
- Patients who achieved response (ALP<1.67×ULN, ALP reduction ≥15%, TB≤ULN) at Month 12 (patients with PBC; OCA Titration, 5 mg or 10 mg (N = 70), ITT, listed as Obeticholic acid): 32 (46) %
- Response at Month 6 [1] (patients with PBC; 10 mg OCA (N = 60)): (41.7%)
- Response at Month 12 [1] (patients with PBC; 10 mg OCA (N = 60)): (43.3%)
- Response at Month 6 [1] (patients with PBC; OCA Titration (N = 60)): (35.0%)
- Response at Month 12 [1] (patients with PBC; OCA Titration (N = 60)): (38.3%)
- responders who became non-responders (patients with PBC; continued dosing of 5 mg QD, month 6 to month 12): 19%
- ALP < 1.67 × ULN and Decrease ≥ 15% at Month 6 [3] (patients with PBC; 10 mg OCA): (88.9%)
- ALP < 1.67 × ULN and Decrease ≥ 15% at Month 12 [3] (patients with PBC; 10 mg OCA): (77.8%)
- ALP < 1.67 × ULN at Month 6 [3] (patients with PBC; 10 mg OCA): (94.4%)
- ALP < 1.67 × ULN at Month 12 [3] (patients with PBC; 10 mg OCA): (88.9%)
- Decrease in ALP ≥ 15% at Month 6 [3] (patients with PBC; 10 mg OCA): (88.9%)
- Decrease in ALP ≥ 15% at Month 12 [3] (patients with PBC; 10 mg OCA): (77.8%)
- ALP < 1.67 × ULN and Decrease ≥ 15% at Month 6 [3] (patients with PBC; OCA Titration): (76.9%)
- ALP < 1.67 × ULN and Decrease ≥ 15% at Month 12 [3] (patients with PBC; OCA Titration): (76.9%)
- ALP < 1.67 × ULN at Month 6 [3] (patients with PBC; OCA Titration): (76.9%)
- ALP < 1.67 × ULN at Month 12 [3] (patients with PBC; OCA Titration): (84.6%)
- Decrease in ALP ≥ 15% at Month 6 [3] (patients with PBC; OCA Titration): (84.6%)
- Decrease in ALP ≥ 15% at Month 12 [3] (patients with PBC; OCA Titration): (76.9%)
- ALP < 2.0 × ULN and Decrease ≥ 40% at Month 6 [2] (patients with PBC; 10 mg OCA): (21.4%)
- ALP < 2.0 × ULN and Decrease ≥ 40% at Month 12 [2] (patients with PBC; 10 mg OCA): (28.6%)
- ALP < 2.0 × ULN at Month 6 [2] (patients with PBC; 10 mg OCA): (71.4%)
- ALP < 2.0 × ULN at Month 12 [2] (patients with PBC; 10 mg OCA): (69.1%)
- Decrease in ALP ≥ 40% at Month 6 [2] (patients with PBC; 10 mg OCA): (23.8%)
- Decrease in ALP ≥ 40% at Month 12 [2] (patients with PBC; 10 mg OCA): (31.0%)
- ALP < 2.0 × ULN and Decrease ≥ 40% at Month 6 [2] (patients with PBC; OCA Titration): (23.4%)
- ALP < 2.0 × ULN and Decrease ≥ 40% at Month 12 [2] (patients with PBC; OCA Titration): (27.7%)
- ALP < 2.0 × ULN at Month 6 [2] (patients with PBC; OCA Titration): (51.1%)
- ALP < 2.0 × ULN at Month 12 [2] (patients with PBC; OCA Titration): (59.6%)
- Decrease in ALP ≥ 40% at Month 6 [2] (patients with PBC; OCA Titration): (27.7%)
- Decrease in ALP ≥ 40% at Month 12 [2] (patients with PBC; OCA Titration): (34.0%)
- patients who experienced an increase in ALP (patients with PBC; titration obeticholic acid, 12 months (placebo 36%)): 5%
- plasma OCA exposures versus healthy subjects [1]: > 10 fold
- fraction unbound (Plasma protein binding): < 0.01
